# Assay results as given in ChEMBL document CHEMBL5143548, “Morphinan derivatives with an oxabicyclo[3.2.1]octane structure as dual agonists toward δ and κ opioid receptors” (Bioorg Med Chem, 2022).
# Assays:
# Mu-type opioid receptor [1] = target: T1, Mu-type opioid receptor (Homo sapiens, UniProt P35372); assay: Displacement of [3H]-DAMGO from recombinant human MOR expressed in CHO cell membranes measured after 2 hrs by microbeta scintillation counting method; parameters: species or system Membrane
# [2] = target: T2, Delta-type opioid receptor (Homo sapiens, UniProt P41143); assay: Agonist activity at human delta opioid receptor expressed in CHO cell membranes assessed as stimulation of [35S]GTPgammaS binding incubated for 2 hrs by scintillation counting method relative to SNC80; format: functional; settings: Membrane
# [3] = target: T3, Kappa-type opioid receptor (Homo sapiens, UniProt P41145); assay: Agonist activity at human kappa opioid receptor expressed in CHO cell membranes assessed as stimulation of [35S]GTPgammaS binding incubated for 2 hrs by scintillation counting method relative to U-69593; format: functional; settings: Membrane
# [4] = target: T2, Delta-type opioid receptor; assay: Displacement of [3H]-DPDPE from recombinant human DOR expressed in CHO cell membranes measured after 2 hrs by microbeta scintillation counting method; parameters: species or system Membrane
# Homo sapiens [5] = species: Homo sapiens; assay: Selectivity ratio of Ki for displacement of [3H]-DPDPE from recombinant human DOR expressed in CHO cell membranes to Ki for displacement of [3H]-U-69593 from recombinant human KOR expressed in CHO cell membranes
# Homo sapiens [6] = species: Homo sapiens; assay: Selectivity ratio of Ki for displacement of [3H]-DAMGO from recombinant human MOR expressed in CHO cell membranes to Ki for displacement of [3H]-U-69593 from recombinant human KOR expressed in CHO cell membranes
# [7] = target: T3, Kappa-type opioid receptor; assay: Displacement of [3H]-U-69593 from recombinant human KOR expressed in CHO cell membranes measured after 2 hrs by microbeta scintillation counting method; parameters: species or system Membrane
# Mu-type opioid receptor [8] = target: T1, Mu-type opioid receptor; assay: Agonist activity at human mu opioid receptor expressed in CHO cell membranes assessed as stimulation of [35S]GTPgammaS binding incubated for 2 hrs by scintillation counting method; parameters: species or system Membrane
# [9] = target: T2, Delta-type opioid receptor; assay: Agonist activity at human delta opioid receptor expressed in CHO cell membranes assessed as stimulation of [35S]GTPgammaS binding incubated for 2 hrs by scintillation counting method; format: functional, Membrane
# mu opioid receptor (MOR) = mu opioid receptor (MOR) (Homo sapiens, UniProt P35372); assay: Agonist activity at human mu opioid receptor expressed in CHO cell membranes assessed as stimulation of [35S]GTPgammaS binding incubated for 2 hrs by scintillation counting method relative to DAMGO; parameters: species or system Membrane; settings: CHO cell membranes expressing human mu opioid receptor, probe [35S]GTPgammaS
# [10] = target: T3, Kappa-type opioid receptor; assay: Agonist activity at human kappa opioid receptor expressed in CHO cell membranes assessed as stimulation of [35S]GTPgammaS binding incubated for 2 hrs by scintillation counting method; format: functional, Membrane
# Mu-type opioid receptor [11] = target: T1, Mu-type opioid receptor; assay: Agonist activity at human mu opioid receptor expressed in CHO cell membranes assessed as stimulation of [35S]GTPgammaS binding at 10 uM incubated for 2 hrs by scintillation counting method relative to DAMGO; parameters: species or system Membrane
# T3 sequence (P41145 whole entry): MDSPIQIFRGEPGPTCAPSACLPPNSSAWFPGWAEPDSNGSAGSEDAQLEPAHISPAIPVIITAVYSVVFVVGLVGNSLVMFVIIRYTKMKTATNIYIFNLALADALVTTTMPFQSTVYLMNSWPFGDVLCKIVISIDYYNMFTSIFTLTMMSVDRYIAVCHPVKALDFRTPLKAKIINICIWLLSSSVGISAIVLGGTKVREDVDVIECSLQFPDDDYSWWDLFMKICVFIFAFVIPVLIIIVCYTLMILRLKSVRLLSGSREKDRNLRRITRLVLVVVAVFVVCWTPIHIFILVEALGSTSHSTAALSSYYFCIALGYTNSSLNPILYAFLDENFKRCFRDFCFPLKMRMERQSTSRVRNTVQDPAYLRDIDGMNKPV
# T2 sequence (P41143 whole entry): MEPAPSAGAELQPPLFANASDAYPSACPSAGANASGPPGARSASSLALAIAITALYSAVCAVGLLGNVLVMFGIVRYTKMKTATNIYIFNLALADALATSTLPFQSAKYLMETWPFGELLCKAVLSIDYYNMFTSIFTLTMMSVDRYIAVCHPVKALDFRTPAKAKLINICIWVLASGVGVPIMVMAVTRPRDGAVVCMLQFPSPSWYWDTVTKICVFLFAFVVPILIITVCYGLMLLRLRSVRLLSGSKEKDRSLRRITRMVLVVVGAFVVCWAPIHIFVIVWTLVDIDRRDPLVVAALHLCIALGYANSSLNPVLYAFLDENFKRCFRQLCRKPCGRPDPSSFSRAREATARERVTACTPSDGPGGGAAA
# T1 sequence (P35372 whole entry): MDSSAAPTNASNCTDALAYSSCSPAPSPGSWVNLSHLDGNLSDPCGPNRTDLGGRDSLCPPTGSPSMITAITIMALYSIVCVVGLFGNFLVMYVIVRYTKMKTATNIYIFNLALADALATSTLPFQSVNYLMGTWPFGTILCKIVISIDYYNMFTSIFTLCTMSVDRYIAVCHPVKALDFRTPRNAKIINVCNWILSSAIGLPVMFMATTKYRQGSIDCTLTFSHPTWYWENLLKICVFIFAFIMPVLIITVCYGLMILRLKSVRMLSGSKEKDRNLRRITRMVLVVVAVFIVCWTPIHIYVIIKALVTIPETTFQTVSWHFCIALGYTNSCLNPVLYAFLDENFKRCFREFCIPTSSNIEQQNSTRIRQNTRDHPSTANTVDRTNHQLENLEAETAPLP
# mu opioid receptor (MOR), sequence (P35372 whole entry): as above
compound,measurement,setting,value
O=C(N[C@@H]1C[C@]23CCN(CC4CC4)[C@H](Cc4ccc(O)cc42)[C@]32CC[C@@H]1O2)c1ccccc1,Ki,Mu-type opioid receptor [1],0.165 nM
same,Emax,[2]; filed as agonist,106%
same,Emax,[3]; filed as partial agonist,87.7%
same,Ki,[4],1.67 nM
same,Ratio Ki,Homo sapiens [5],11.9
same,Ratio Ki,Homo sapiens [6],1.2
same,Ki,[7],0.14 nM
same,EC50,Mu-type opioid receptor [8],2.72 nM
same,EC50,[9],2.86 nM
same,Emax at 2 h,mu opioid receptor (MOR),47.2%
same,EC50,[10],1.82 nM
O=C(CCc1ccccc1)N[C@H]1C[C@]23CCN(CC4CC4)[C@H](Cc4ccc(O)cc42)[C@]32CC[C@@H]1O2,Ki,Mu-type opioid receptor [1],1.08 nM
same,Emax,[2]; filed as agonist,111%
same,Emax,[3]; filed as partial agonist,50.3%
same,Ki,[4],5.14 nM
same,Ratio Ki,Homo sapiens [5],2.2
same,Ratio Ki,Homo sapiens [6],0.46
same,Ki,[7],2.36 nM
same,EC50,Mu-type opioid receptor [8],9.35 nM
same,EC50,[9],54.7 nM
same,Emax at 2 h,mu opioid receptor (MOR),11.4%
same,EC50,[10],6.32 nM
O=C(Cc1ccccc1)N[C@@H]1C[C@]23CCN(CC4CC4)[C@H](Cc4ccc(O)cc42)[C@]32CC[C@@H]1O2,Ki,Mu-type opioid receptor [1],0.267 nM
same,Emax,[2]; filed as agonist,85.3%
same,Emax,[3]; filed as partial agonist,68.4%
same,Ki,[4],0.522 nM
same,Ratio Ki,Homo sapiens [5],2.7
same,Ratio Ki,Homo sapiens [6],1.4
same,Ki,[7],0.193 nM
same,EC50,Mu-type opioid receptor [8],9.43 nM
same,EC50,[9],5.96 nM
same,Emax at 2 h,mu opioid receptor (MOR),28.2%
same,EC50,[10],3.11 nM
CN(C(=O)Cc1ccccc1)[C@@H]1C[C@]23CCN(CC4CC4)[C@H](Cc4ccc(O)cc42)[C@]32CC[C@@H]1O2,Ki,Mu-type opioid receptor [1],1.74 nM
same,Emax,[2],39.7%
same,Emax,[3]; filed as partial agonist,88.6%
same,Ki,[4],19.5 nM
same,Ratio Ki,Homo sapiens [5],70.1
same,Ratio Ki,Homo sapiens [6],6.3
same,Ki,[7],0.278 nM
same,EC50,Mu-type opioid receptor [8],7.11 nM
same,EC50,[9],43.6 nM
same,Emax at 2 h,mu opioid receptor (MOR),40.3%
same,EC50,[10],8.44 nM
O=C(CCc1ccccc1)N[C@@H]1C[C@]23CCN(CC4CC4)[C@H](Cc4ccc(O)cc42)[C@]32CC[C@@H]1O2,Ki,Mu-type opioid receptor [1],0.126 nM
same,Emax,[2]; filed as agonist,104%
same,Emax,[3]; filed as partial agonist,75.4%
same,Ki,[4],5.18 nM
same,Ratio Ki,Homo sapiens [5],26.3
same,Ratio Ki,Homo sapiens [6],0.64
same,Ki,[7],0.197 nM
same,EC50,Mu-type opioid receptor [8],12.7 nM
same,EC50,[9],112 nM
same,Emax at 2 h,mu opioid receptor (MOR),10.2%
same,EC50,[10],5.31 nM
O=C(N[C@H]1C[C@]23CCN(CC4CC4)[C@H](Cc4ccc(O)cc42)[C@]32CC[C@@H]1O2)c1ccccc1,Ki,Mu-type opioid receptor [1],0.564 nM
same,Emax,[2]; filed as agonist,97.4%
same,Emax,[3],23.7%
same,Ki,[4],5.68 nM
same,Ratio Ki,Homo sapiens [5],0.54
same,Ratio Ki,Homo sapiens [6],0.05
same,Ki,[7],10.6 nM
same,Activity,Mu-type opioid receptor [11],10.2%
same,EC50,[9],51.9 nM
same,EC50,[10],32.4 nM
O=C(Cc1ccccc1)N[C@H]1C[C@]23CCN(CC4CC4)[C@H](Cc4ccc(O)cc42)[C@]32CC[C@@H]1O2,Ki,Mu-type opioid receptor [1],3.81 nM
same,Emax,[2]; filed as agonist,101%
same,Emax,[3],35.8%
same,Ki,[4],4.98 nM
same,Ratio Ki,Homo sapiens [5],2.9
same,Ratio Ki,Homo sapiens [6],2.2
same,Ki,[7],1.71 nM
same,EC50,Mu-type opioid receptor [8],5.37 nM
same,EC50,[9],3.83 nM
same,Emax at 2 h,mu opioid receptor (MOR),8.7%
same,EC50,[10],13.4 nM
CN(C(=O)CCc1ccccc1)[C@@H]1C[C@]23CCN(CC4CC4)[C@H](Cc4ccc(O)cc42)[C@]32CC[C@@H]1O2,Ki,Mu-type opioid receptor [1],1.46 nM
same,Emax,[2]; filed as agonist,85.2%
same,Emax,[3]; filed as partial agonist,58.5%
same,Ki,[4],20.5 nM
same,Ratio Ki,Homo sapiens [5],61.7
same,Ratio Ki,Homo sapiens [6],4.4
same,Ki,[7],0.332 nM
same,EC50,Mu-type opioid receptor [8],5.61 nM
same,EC50,[9],21.4 nM
same,Emax at 2 h,mu opioid receptor (MOR),33.4%
same,EC50,[10],9.95 nM
CN(C(=O)c1ccccc1)[C@@H]1C[C@]23CCN(CC4CC4)[C@H](Cc4ccc(O)cc42)[C@]32CC[C@@H]1O2,Ki,Mu-type opioid receptor [1],1.42 nM
same,Emax,[2],27.7%
same,Emax,[3],34.6%
same,Ki,[4],23.2 nM
same,Ratio Ki,Homo sapiens [5],90.6
same,Ratio Ki,Homo sapiens [6],5.5
same,Ki,[7],0.256 nM
same,EC50,Mu-type opioid receptor [8],4.7 nM
same,EC50,[9],0.171 nM
same,Emax at 2 h,mu opioid receptor (MOR),47.5%
same,EC50,[10],1.59 nM
